# In patent USRE38425E1, “Semicarbazones having CNS activity and pharmaceutical preparations containing same” (University of Saskatchewan Technologies, Inc., priority 1995, dated 2004):
# How the values were obtained:
# rats [1] = assay: MES screen after intraperitoneal injection into rats; format: in vivo; settings: Rattus norvegicus, ip, 4 h
# mice [2] = assay: timed intravenous pentylenetetrazole test; format: in vivo; settings: for quantity of pentylenetetrazole administered (SE) to clonus / quantity of pentylenetetrazole administered (SE) to first twitch: mice i.p.
# Experimental: The times from the commencement-of the infusion until the appearances of the first twitch and also the onset of clonus were recorded for the test and control animals. […] Ten animals were used as controls and for each dose administered except for the 13 mg/kg dose of 4b in which case 9 animals were employed.
# rats [3] = settings: oral administration to rats; examined ¼-24 h; data taken from reference 1; cited from earlier work
# [4] = tested on: rat livers (liver microsomal system); assay: effect of chronic oral administration on rat livers; format: in vivo, rats; settings: 100 mg/kg orally daily for three days; p>0.05
# Experimental: Further bioevaluations of compound 4b were undertaken.
# Rats were administered 100 mg/kg of 4b daily for 3 days. The livers were removed, weighed and the effect of 4b on the liver microsomal system were compared to control animals which received only the vehicle (sonicated 0.5% methylcellulose).^21-23
# in vivo [5] = settings: rat, ip
# mice [6] = settings: intraperitoneal injection in mice; time t (h) per compound as in the table
# Experimental: An initial anticonvulsant evaluation of the compounds prepared according to Example 1 was undertaken by administering the compounds by the intraperitoneal route to mice. Protection and/or neurotoxicity was noted 0.5 and 4 hours after administering doses of 30, 100 and 300 mg/kg of each semicarbazone to the animals.
# Doses of 30, 100 and 300 mg/kg were injected by the intraperitoneal route into mice and evaluated in the MES, scPTZ and neurotoxicity screens one half and four hours after administration.
# mice [7] = assay: subcutaneous strychnine test; format: in vivo; settings: dose range of 13.5-108 mg/kg
# Description: (§1) Compound 4b was also examined for protective effects after subcutaneous administration of strychnine. […] Two animals per dose were used except in the bicuculline and picrotoxin tests for 4b in which cases, 8 or 16 animals per dose were employed.
# in vivo [8] = settings: rat, po
# Experimental: (§2) Initially doses of 50 mg/kg of the semicarbazones were administered.
# rats [9] = assay: MES screen after oral administration to rats
# Experimental: The majority of the compounds were examined for oral activity in rats. Initially doses of 50 mg/kg of the semicarbazones were administered.
# Evaluation of most of the semicarbazones and analogs in the MES and neurotoxicity tests after oral administration to rats was performed.
# mice [10] = assay: MES screen after intraperitoneal injection in mice; format: in vivo; settings: time t (h) per compound as in the table
# in vivo [11] = settings: mouse, ip
# kindled rat = kindled rat test (corneal kindled rat screen); format: in vivo, rats; settings: Rattus norvegicus; read-out: ED50 (dose required to reduce seizures from stage 5 to stage 3 or less)
# Description: Particularly preferred compounds according to the present invention are 4-(4′-fluorophenoxy)benzaldehyde semicarbazone and 4-(thiophenoxy)benzaldehyde semicarbazone. […] Incidentally, the kindled rat screen is described by R. J. Racine in “Modification of Seizure Activity by Electrical Stimulation. II. Motor Seizure”, Electroencephalogr.Clin.Neurophysiol., 1972, 32, 281-294, and by G. Skeen et al. In “Development of Kindled Seizures Following Electrical Stimulation via the Cornea”, Soc.Neurosci., 1990, 16(1), 307; the disclosures of which are incorporated herein by reference.
# The kindled rat test was undertaken by reported procedures (as indicated above). Compound 4b was administered orally and the animals challenged with electrical stimuli 2h later. The ED50 is the dose required to reduce seizures from stage 5 to stage 3 or less and these stages are described as follows namely stage 1 is mouth and facial clonus, stage 2 is stage 1 plus head nodding, stage 3 is stage 2 plus forelimb clonus, stage 4 is stage 3 plus rearing and stage 5 is stage 4 plus repeated rearing and falling.
# rats [12] = settings: rat, in vivo, ip
# mice [13] = assay: subcutaneous picrotoxin test; format: in vivo
# Description: as §1
# mice [14] = assay: subcutaneous bicuculline test; format: in vivo
# Description: as §1
# rats [15] = assay: neurotoxicity screen after oral administration to rats; settings: oral dosing of rats; 500 mg/kg
# Experimental: as §2
# rats [16] = assay: scPTZ screen after intraperitoneal administration to rats; format: in vivo; settings: for protection in the scPTZ screen, rats protected: intraperitoneal administration to rats
# epileptic chicken = epileptic chicken model (intermittent photic stimulation); format: in vivo; settings: Gallus gallus; convulsions induced by intermittent photic stimulation
# Description: Two series of compounds were examined with the aim of observing whether oxygen or sulfur is a preferable spacer atom between the two aryl rings and also to compare the ED50 figures with those obtained in the rat oral and mouse intraperitoneal screens.
# [17] = TD50 dose (4b 108 mg/kg, 5g 95 mg/kg)
# [18] = approximate MES ED50 dose (4b 13 mg/kg, 5g 15 mg/kg)
# [19] = oral administration to rats, dose 50 mg/kg, 0.25 h
# [20] = oral administration to rats, dose 50 mg/kg, 0.5 h
# [21] = oral administration to rats, dose 50 mg/kg, 1 h
# [22] = oral administration to rats, dose 50 mg/kg, 2 h
# [23] = oral administration to rats, dose 50 mg/kg, 4 h
# [24] = various doses (5g 12-96 mg/kg), given 1 h (4b) or 0.5 h (5g) before
smiles,measurement,setting,value
"NC(=O)NN=Cc1ccc(Oc2ccc(F)cc2)cc1 [Compound 4b, 4-(4′-fluorophenoxy)benzaldehyde semicarbazone]",ED50,rats [1],2.37 mg/kg
same,quantity of pentylenetetrazole administered (SE) to clonus,mice [2]; [17],42.1(1.4) mg/kg
same,quantity of pentylenetetrazole administered (SE) to first twitch,mice [2]; [17],32.6(0.8) mg/kg
same,quantity of pentylenetetrazole administered (SE) to clonus,mice [2]; [18],37.6(1.5) mg/kg
same,quantity of pentylenetetrazole administered (SE) to first twitch,mice [2]; [18],32.3(1.4) mg/kg
same,effect on time to clonus,"mice [2]; mice, dose of 108 mg/kg",increased the time to clonus
same,proconvulsant properties,"mice [2]; mice, intraperitoneal doses = MES ED50 and TD50 figures, pentylenetetrazole infused after 1 h",Neither compound possessed this undesirable feature
same,neurotoxicity screen TD50,rats [3],>500 mg/kg
same,"differences between livers from treated and control rats (liver weights, microsomal protein yields, hepatic enzyme activities)",[4],No differences
same,TD50 at 4 h,in vivo [5],80.1 mg/kg
same,acPTZ screen ED50,mice [6],>54 mg/kg
same,protection in the subcutaneous strychnine test,mice [7],no protection
same,TD50,in vivo [8],> 500 mg/kg
same,ED50,"rats [9]; Rattus norvegicus, po, read-out: MES screen ED50 (mg/kg), oral administration to rats, time t (h) per compound as in the table",1.59 mg/kg
same,MES screen 0.25 h: number of rats out of 4 which were protected,rats [9]; [19],2
same,MES screen: number of rats out of 4 which were protected,rats [9]; [19],2
same,MES screen 0.5 h: number of rats out of 4 which were protected,rats [9]; [20],4
same,MES screen: number of rats out of 4 which were protected,rats [9]; [20],4
same,MES screen 1 h: number of rats out of 4 which were protected,rats [9]; [21],4
same,MES screen: number of rats out of 4 which were protected,rats [9]; [21],4
same,MES screen 2 h: number of rats out of 4 which were protected,rats [9]; [22],4
same,MES screen: number of rats out of 4 which were protected,rats [9]; [22],4
same,MES screen 4 h: number of rats out of 4 which were protected,rats [9]; [23],4
same,MES screen: number of rats out of 4 which were protected,rats [9]; [23],4
same,ED50,"mice [10]; Mus musculus, ip, read-out: MES screen ED50 (mg/kg), intraperitoneal injection in mice",15 to 25 mg/kg
same,MES screen ED50,mice [10]; intraperitoneal injection in mice,12.86 mg/kg
same,TD50,in vivo [11],108 mg/kg
same,ED50,kindled rat,3.93 mg/kg
same,slope (SE) of the TD50,rats [12],17.02(6.41)
same,protection in the subcutaneous picrotoxin test (animals protected),mice [13]; 27 mg/kg,1/8
same,protection in the subcutaneous picrotoxin test (animals protected),mice [13]; 108 mg/kg,5/16
same,protection in the subcutaneous picrotoxin test (animals protected),mice [13]; 216 mg/kg,2/8
same,protection against convulsions induced by subcutaneous picrotoxin,mice [13]; [24],partial protection
same,number of animals protected in the subcutaneous bicuculline test,mice [14]; 54 mg/kg,0/8
same,number of animals protected in the subcutaneous bicuculline test,mice [14]; 108 mg/kg,3/8
same,number of animals protected in the subcutaneous bicuculline test,mice [14]; 216 mg/kg,3/8
same,protection against convulsions induced by subcutaneous bicuculline,mice [14]; [24],partial protection
same,neurotoxicity at the maximum dose utilized,rats [15],absence of neurotoxicity
same,"protection in the scPTZ screen, rats protected",rats [16]; 125 mg/kg,0/2
same,"protection in the scPTZ screen, rats protected",rats [16]; 250 mg/kg,1/10
same,protection in the scPTZ screen,"rats [16]; rats, dose of 125 mg/kg",did not afford protection
same,rats protected in the scPTZ screen,"rats [16]; rats, dose of 250 mg/kg",10%
same,ED50,epileptic chicken,1.5 mg/kg
